Consider 2 substances from US8178506B2, “Oligomeric compounds and compositions for use in modulation of small non-coding RNAs” (Regulus Therapeutics Inc., priority 2003, dated 2012).

The subject of one series is mir-21 pri-miRNA. The series is described as follows: mir-21 pri-miRNA expression in HeLa cells (real-time RT-PCR). It counts as cell-based, human. As to conditions: HeLa cells, 100 nM, real-time RT-PCR.
The subject of a further series is PPP2CB protein. The series is described as follows: Immunoblot of PPP2CB protein in differentiating adipocytes. Particulars: differentiating adipocytes 7- and 10-days post-differentiation, 250 nM. Format: cell-based, human. As to the method:
When miRNAs have effects on the expression of downstream genes or proteins encoded by these genes, it is advantageous to measure the protein levels of those gene products, and to do this, western blot (immunoblot) analysis is employed. Immunoblot analysis is carried out using standard methods. Briefly, preadipocytes and differentiating adipocytes were cultured as described previously, and differentiating adipocytes are sampled at several timepoints after stimulation of differentiation. Cells were treated with 250 nM oligomeric compounds and harvested 16-20 h after oligomeric compound treatment. Cells were washed, lysed in RIPA buffer with protease inhibitor cocktail (Roche Diagnostics Corporation, Indianapolis, Ind.), suspended in Laemmli buffer (20 ul/well), boiled for 5 minutes and loaded onto either an 8% SDS-PAGE or a 4-20% gradient SDS-PAGE gel. Gels are run for approximately 1.5 hours at 150 V, and transferred to PVDF membrane for western blotting. […] Bands are visualized and quantitated using a PHOSPHORIMAGER™ (Molecular Dynamics, Sunnyvale Calif.) or the ChemiDoc™ system (Bio-Rad Laboratories, Inc., Hercules, Calif.). Thus, the effects of treatment of many cell types (including, but not limited to, preadipocytes, differentiating adipocytes, HeLa, T-24 and A549 cells) with oligomeric compounds of the present invention on the levels of gene expression products can be assessed. […]

In the oligonucleotide strings, read from the 5' end, every base follows the letter of its sugar. An asterisk marks phosphorothioate; unmarked linkages are phosphodiester. Other units and linkages are bracketed, terminal groups are in braces. A string of capitals states the bases alone. e = 2'-O-(2-methoxyethyl) (MOE); [5mC] = 5-methylcytosine

As to “327917 (antisense eT*e[5mC]*eA*eA*e[5mC]*eA*eT*e[5mC]*eA*eG*eT*e[5mC]*eT*eG*eA*eT*eA*eA*eG*e[5mC]*eT*eA) [compound 327917]”, in the series on mir-21 pri-miRNA, the “mir-21 pri-miRNA expression % UTC” value amounted to 249 % UTC. In the case of “TGAGCTACAGTGCTTCATCTCA [ISIS 327901] (chemistry not given here) [uniform 2′-MOE PS; targets mir-143]”, the PPP2CB protein levels entry in the series with PPP2CB protein was “higher”.
